Assays:
[1] = tested on: Lewis lung tumor; assay: In vivo accumulation in Lewis lung tumor (extraction, fluorescence); details: for accumulation of fluorescent components at tumor loci (in words) / Uptake in vivo: 5 mg/kg i.p., 48 hours after injection; for Uptake in vivo: average + SD of three determinations; for fluorescence emission of tumor extracts (in words): excitation 400 nm, FIG. IV
Description: In vivo biological studies were conducted using DHE, CHE, HPD, hematoporphyrin, mesochlorin and bonellin. The Lewis lung tumor was maintained in female C57BL/6 mice by S.C. implant. Seven days after implantation, a respective compound was administered to test mice by i.p. injection at a dosage level of 5 mg/kg. Forty-eight hours after injection, each tumor was excised, weighed and homogenized in 50 mM 4-(2-hydroxyethyl)-1-piperazineethanesulfonic acid buffer (pH7) containing 10 mM cetyltrimethyl ammonium bromide (1 m./100 mg tissue). The resulting homogenates were shaken with 2.5 volumes of methanol: chloroform (1:1) and the phases separated by centrifugation. Under these conditions, fluorescence is quantitatively extracted into the chloroform-rich phase. These extracts were used for determination of fluorescence emission spectra (excitation wave length, 400 nm). […] For analytical studies, the extracts were evaporated and the residue hydrolyzed in 0.5 M HCl at 37° C. for 18 hours.

[2] = tested on: L1210 cells; assay: In vitro uptake by L1210 tumor cells; assay type: cell-based, mouse; details: 24 hours, 10 μg/ml; for Uptake in vitro: average + SD of three determinations
Description: Uptake of DHE or CHE, purified by gel-exclusion chromatography, was measured by extraction of cells after 24 hour incubations in vitro. Cell pellets (20-30 mg) were suspended in 800 μL of phosphate buffer (pH 3.5) and shaken for 3 minutes with 2 ml of a 1:1 mixture of methanol: chloroform. The lower phase was collected by centrifugation and used for measurement of absorbance at 400 nm.
In vitro uptake of DHE, CHE and HPD, hematoporphyrin, mesochlorin and bonellin by tumor cells was studied using L1210 cells incubated for 24 hours with 10 μg/ml concentrations of each respective compound. The cells were then washed for 30 minutes in fresh medium at 37° C. and drug concentrations were determined.

[3] = tested on: L1210 mouse/leukemia cells; assay: Photodynamic effects on cell viability as a function of irradiation wavelength (soft-agar clonogenic assay); assay type: cell-based; details: for Action spectrum: cell viability after irradiation at 620 nm (mean + SD of control percentage) / Action spectrum: cell viability after irradiation at 630 nm (mean + SD of control percentage) / Action spectrum: cell viability after irradiation at 640 nm (mean + SD of control percentage) / Action spectrum: cell viability after irradiation at 650 nm (mean + SD of control percentage): 24 h incubation, 5 g/ml (so in the source), 2000 J/m^2, five minutes; for optimal phototoxic light wave length: cells loaded for 24 hours
Description: In order to determine the photosensitization capacity of DHE and CHE, respectively, comparison in vitro tests were prepared using L1210 mouse/leukemia cells grown in culture using Fischer's medium plus 10 percent horse serum. Cell suspensions (7 mg/ml wet weight) were incubated for 24 hours in growth medium containing the 5 µg/ml of the respective photosensitizer. The cell suspensions were, then, washed for 30 minutes at 37° C. in fresh medium to remove readily diffusible porphyrine.
Irradiation was carried out for five minutes (fluence =2000 J/m^2) using a 100 w tungsten-halogen lamp with a wave length selected via narrow bandpass interference filters (=10 nm). Photodynamic effects on cell viability, as a function of irradiation wavelength, were measured by a soft-agar clonogenic assay in the manner described in Kessel, "Determinants of Hematoporphyrincatalyzed Photosensitization" 36 Photochemical Photobiology pp. 99-101 (1982) which is incorporated herein by reference. Light filters were purchased from the Oriel Corp. of Stanford, CT, and the light flux was measured with a thermopile obtained from the same source.

[4] = Storage stability of aqueous solutions of CHE; assay type: physicochemical
Description: The storage stability of aqueous solutions of CHE (ph 7.5) is determined at -20° C. and at 4° C. respectively.

Compound: CC1=C(CCC(=O)O)c2cc3nc(cc4[nH]c(cc4C)cc4[nH]c(cc1n2)cc4C)C(C)(C)C3CCC(=O)O (centres unmarked) [Bonellin, bonellin]
- accumulation of fluorescent components at tumor loci (in words) [1]: no detectible concentration of fluorescent products at tumor loci
- Uptake in vivo [1]: < 0.01
- Uptake in vitro [2]: 0.06 µg/100 mg cells

Compound: CCC1=C(C)c2cc3[nH]c(cc4nc(cc5[nH]c(cc1n2)c(C)c5CCC(=O)OC(C)C1=C(C)c2cc5[nH]c(cc6nc(cc7[nH]c(cc1n2)c(C)c7CCC(=O)O)C(CCC(=O)O)=C6C)c(C)c5C(C)O)C(CCC(=O)O)C4C)c(C)c3CC (centres unmarked) [CHE, chlorin-hematoporphyrin ester]
- Action spectrum: cell viability after irradiation at 620 nm (mean + SD of control percentage) [3]: 96 + 5 control percentage
- Action spectrum: cell viability after irradiation at 630 nm (mean + SD of control percentage) [3]: 87 + 5 control percentage
- Action spectrum: cell viability after irradiation at 640 nm (mean + SD of control percentage) [3]: 10 + 2 control percentage
- Action spectrum: cell viability after irradiation at 650 nm (mean + SD of control percentage) [3]: 65 + 2 control percentage
- optimal phototoxic light wave length [3]: 640 nm
- lethality relative to DHE ([3]; constant flux of 2000 J/M^2, CHE vs DHE): 5 fold
- fluorescence emission of tumor extracts (in words) [1]: greater tumor fluorescence emission at 647 nm than at 627 nm
- storage stability of aqueous solution at 4° C. ([4]; pH 7.5, 4° C.): gradual hydrolysis of the ester-linkage
- storage stability of aqueous solution at -20° C. ([4]; pH 7.5, -20° C.): remained stable
- in vitro accumulation compared between drugs (in words) [2]: almost identical

Compound: Dihematoporphyrin ester [DHE]
- Action spectrum: cell viability after irradiation at 620 nm (mean + SD of control percentage) [3]: 68 + 4 control percentage
- Action spectrum: cell viability after irradiation at 630 nm (mean + SD of control percentage) [3]: 45 + 2 control percentage
- Action spectrum: cell viability after irradiation at 640 nm (mean + SD of control percentage) [3]: 85 + 5 control percentage
- Action spectrum: cell viability after irradiation at 650 nm (mean + SD of control percentage) [3]: 96 + 3 control percentage
- optimal phototoxic light wave length [3]: 630 nm
- accumulation of fluorescent components at tumor loci (in words) [1]: accumulation of fluorescent components at tumor loci
- Uptake in vivo [1]: 2.1
- fluorescence emission of tumor extracts (in words) [1]: fluorescence at 627 nm only
- in vitro accumulation compared between drugs (in words) [2]: almost identical
- Uptake in vitro [2]: 0.49
